In patent US12459939B2 (SHANGHAI RINGENE BIOPHARMA CO., LTD., priority 2019, dated 2025) one finds IC50 data, which are given here for 16 compounds.

In general, IC50 refers to the concentration that gives 50% inhibition.

The structures appear in SMILES notation.

Assay [1] addresses T1, BRD4-BD1 (Homo sapiens, UniProt O60885).
T1 construct: purchased ReactionBiologyCorp; (RBC)
Nature of the assay: BRD4 AlphaScreen determination (BD1). To be noted: AlphaScreen, protein binding inhibition; read-out: BRD4-BD1 IC50. The format is binding. The procedure:
(§1) (1) 1× Assay buffer was prepared according to the kit requirements of ReactionBiologyCorp. (RBC). (2) Compound concentration gradient preparation: the test compounds were tested at final concentrations starting at 10 μM, with 10 concentrations at 3-fold dilution and single well test was set for each concentration. The positive control compound(+)-JQ-1 was tested at final concentrations starting at 1 μM, with 10 concentrations at 3-fold dilution, and duplicated well test was set for each concentration. The solution was gradient diluted to the corresponding 1000-fold final concentration in a 384-well Source plate, and then 20 nL of the solution was transferred to the 384-well reaction plate with Echo550 to be measured. 20 nL of 100% DMSO was transferred to the Max well, and the highest concentration of the positive compounds were transferred to the Min wells. […] (6) 5 μL of 4× peptide solution was added to each well of the reaction plate, centrifuged at 1000 rpm for 1 min. (7) 10 μL of the assay solution was added, centrifuged at 1000 rpm for 60 seconds, the solution was mixed with gentle shaking, and incubated at room temperature for 60 minutes. (8) Reading with EnVision. (9) The IC50 values of the compounds for protein binding inhibition was obtained by fitting the dose-effect curve with the analytical software GraphPad Prism 5. (See Table 1 for specific values)

The test system of assay [2] is MV4-11 cells. Description: Inhibition of proliferation of MV4-11 cells (CellTiter-Glo). The assay is classed as cell-based. To be noted: Homo sapiens, 72 h. The procedure: Specific experimental steps: 1) Day 0: 96 inoculated cells were digested with trypsin and suspended in cell culture medium, the cell density was detected by an automatic cell counter and the cells were diluted with the culture medium to a suitable density, 100 μL of cell suspension was added to the 96-well plate, and the cell-free medium was used as a control well, and the wells were incubated in a 37° C., 5% CO2 cell incubator overnight; 2) Day 1: A total of 8 concentrations of the compound to be tested in the drug-treated cells were tested at 3-fold dilution, 10 μM was the starting assay concentration of the compound to be tested. Specific steps: 200× compound mother liquor was prepared, the compound was diluted with culture medium to a final concentration of […], that is, 3 μL of 200× compound was added to 197 μL of culture medium, 50 μL diluted compound was added to each well of the 96-well plate, and placed at 37° C., 5% CO2 cell culture incubator for 72 h; 3) Day 4: Cell viability detection: 96-well cell plate was first equilibrated to room temperature, 40 μL of CellTiter-Glo® reagent was added to each well, mixed on a shaker for 2 minutes to fully lyse the cells, incubated at room temperature for 10 minutes to stabilize the luminescence signal, and the luminescence value was read by the Envision microplate reader; 4) data processing was performed by GraphPad Prism 5.0 software to analyze the data, and nonlinear S-curve regression was used to fit the data to obtain a dose-effect curve, and from which the ICso value was calculated. Inhibition rate %=(DMSO treated cell wells−compound treated cell wells)/(DMSO treated cell wells−cell free medium wells)×100. The ICso value was obtained by the four-parameter regression method using the random software in the microplate reader. (See Table 2 for specific values)

The target in assay [3] is T2, BRD4-BD2 (Homo sapiens, UniProt O60885).
T2 construct: purchased ReactionBiologyCorp; (RBC)
Description: BRD4 AlphaScreen determination (BD2). The format is binding. Conditions: AlphaScreen, protein binding inhibition; read-out: BRD4-BD2 IC50. The method, then: as §1
(Alpha assays give light when donor and acceptor beads are brought close together.)

On to `CCNC(=O)c1cc2c(=O)n(C)cc(-c3cc(S(C)(=O)=O)cc4c3OC(C)(C)C(=O)N4C)c2[nH]1` [Embodiment 2, N-ethyl-5-methyl-4-oxo-7-(2,2,4-trimethyl-6-(methylsulfonyl)-3-oxo-3,4-dihydro-2H-benzo[b][1,4]oxazin-8-yl)-4,5-dihydro-1H-pyrrolo[3,2-c]pyridine-2-amide], for which the IC50 was found to be 36 nM in assay [1], 64 nM in assay [2] and 1.2 nM in assay [3].

As for `Cc1cc(F)cc(C)c1Oc1ccc(C(C)(C)O)cc1-c1cn(C)c(=O)c2cc(C(=O)NCCCC#Cc3cccc4c3CN(C3CCC(=O)NC3=O)C4=O)[nH]c12` (centres unmarked) [Embodiment 3, N-(5-(2-(2,6-dioxopiperidin-3-yl)-1-oxoisoindolin-4-yl)pent-4-yn-1-yl)-7-(2-(4-fluoro-2,6-dimethylphenoxy)-5-(2-hydroxyprop-2-yl)phenyl)-5-methyl-4-oxo-4,5-dihydro-1H-pyrrolo[3,2-c]pyridine-2-amide], in assay [2], the IC50 was below 1.5 nM.

As to `Cc1cc(F)cc(C)c1Oc1ccc(C(C)(C)O)cc1-c1cn(C)c(=O)c2cc(C(=O)NCCCCCc3cccc4c3CN(C3CCC(=O)NC3=O)C4=O)[nH]c12` (centres unmarked) [Embodiment 4, N-(5-(2-(2,6-dioxopiperidin-3-yl)-1-oxoisoindolin-4-yl)pentyl)-7-(2-(4-fluoro-2,6-dimethylphenoxy)-5-(2-hydroxyprop-2-yl)phenyl)-5-methyl-4-oxo-4,5-dihydro-1H-pyrrolo[3,2-c]pyridine-2-amide], the IC50 in assay [2] was below 1.5 nM.

`Cc1cc(F)cc(C)c1Oc1ccc(C(C)(C)O)cc1-c1cn(C)c(=O)c2cc(C(=O)NCCCCNC(=O)COc3cccc4c3C(=O)N(C3CCC(=O)NC3=O)C4=O)[nH]c12` (centres unmarked) [Embodiment 5, N-(4-(2-((2-(2,6-dioxopiperidin-3-yl)-1,3-dioxoisoindolin-4-yl)oxo)acetamido)butyl)-7-(2-(4-fluoro-2,6-dimethylphenoxy)-5-(2-hydroxyprop-2-yl)phenyl)-5-methyl-4-oxo-4,5-dihydro-1H-pyrrolo[3,2-c]pyridine-2-amide] gave an IC50 in assay [2] below 1.5 nM.

For the compound `Cc1cc(F)cc(C)c1Oc1ccc(C(C)(C)O)cc1-c1cn(C)c(=O)c2cc(C(=O)NCCCOCCOCCOCCCNc3cccc4c3C(=O)N(C3CCC(=O)NC3=O)C4=O)[nH]c12` (centres unmarked) [Embodiment 6, N-(3-(2-(2-(3-((2-(2,6-dioxopiperidin-3-yl)-1,3-dioxoisoindolin-4-yl)amino)propoxy)ethoxy)ethoxy)propyl)-7-(2-(4-fluoro-2,6-dimethylphenoxy)-5-(2-hydroxyprop-2-yl)phenyl)-5-methyl-4-oxo-4,5-dihydro-1H-pyrrole[3,2-c]pyridine-2-amide], half-maximal inhibition in assay [2] (IC50) required 10.2 nM.

Turning to `CN1C(=O)C(C)(C)Oc2c(-c3cn(C)c(=O)c4cc(C(=O)NCCOCCOCCOCCC(=O)Nc5cccc6c5C(=O)N(C5CCC(=O)NC5=O)C6=O)[nH]c34)cc(S(C)(=O)=O)cc21` (centres unmarked) [Embodiment 7, N-(2-(2-(2-(3-((2-(2,6-dioxopiperidin-3-yl)-1,3-dioxoisoindolin-4-yl)amino)-3-oxo-n-propoxy)ethoxy)ethoxy)ethyl)-5-methyl-4-oxo-7-(2,2,4-trimethyl-6-(methylsulfonyl)-3-oxo-3,4-dihydro-2H-benzo[b] [1,4]oxazin-8-yl)-4,5-dihydro-1H-pyrrolo[3,2-c]pyridine-2-amide], in assay [2], the IC50 is below 1.5 nM.

Consider `COCCNC(=O)c1cc2c(=O)n(C)cc(-c3cc(C(C)(C)O)ccc3Oc3c(C)cc(F)cc3C)c2[nH]1` [Embodiment 9, 7-(2-(4-fluoro-2,6-dimethylphenoxy)-5-(2-hydroxyprop-2-yl)phenyl)-N-(2-methoxyethyl)-5-methyl-4-oxo-4,5-dihydro-1H-pyrrolo[3,2-c]pyridine-2-amide], for which the values for the IC50 in assay [1], in assay [2] and in assay [3] were 37 nM, 19.8 nM and 0.51 nM, respectively.

Turning to `Cc1cc(F)cc(C)c1Oc1ccc(C(C)(C)O)cc1-c1cn(C)c(=O)c2cc(C(=O)NCCS(C)(=O)=O)[nH]c12` [Embodiment 10, 7-(2-(4-fluoro-2,6-dimethylphenoxy)-5-(2-hydroxyprop-2-yl)phenyl)-N-(2-methylsulfonyl)-4-oxo-4,5-dihydro-1H-pyrrolo pyridine-2-amide], the IC50 in assay [1] worked out at 58 nM; in assay [2], 19.8 nM; in assay [3], 0.69 nM.

Take `Cc1cc(F)cc(C)c1Oc1ccc(C(C)(C)O)cc1-c1cn(C)c(=O)c2cc(C(=O)NCC3CC3)[nH]c12` [Embodiment 12, N-(cyclopropylmethyl)-7-(2-(4-fluoro-2,6-dimethylphenoxy)-5-(2-hydroxyprop-2-yl)phenyl)-5-methyl-4-oxo-4,5-dihydro-1H-pyrrolo[3,2-c]pyridine-2-amide]: the IC50 is 50 nM in assay [1], 12.7 nM in assay [2] and below 0.5 nM in assay [3].

For `Cc1cc(F)cc(C)c1Oc1ccc(C(C)(C)O)cc1-c1cn(C)c(=O)c2cc(C(=O)NC(C)C)[nH]c12` [Embodiment 13, 7-(2-(4-fluoro-2,6-dimethylphenoxy)-5-(2-hydroxyprop-2-yl)phenyl)-N-isopropyl-5-methyl-4-oxo-4,5-dihydro-1H-pyrrolo[3,2-c]pyridine-2-amide], the values for the IC50 in assay [1], in assay [2] and in assay [3] were 79 nM, 6.6 nM and below 0.5 nM, respectively.

For `Cc1cc(F)cc(C)c1Oc1ccc(C(C)(C)O)cc1-c1cn(C)c(=O)c2cc(C(=O)NCC(F)(F)F)[nH]c12` [Embodiment 14, 7-(2-(4-fluoro-2,6-dimethylphenoxy)-5-(2-hydroxyprop-2-yl)phenyl)-5-methyl-4-oxo-N-(2,2,2-trifluoroethyl)-4,5-dihydro-1H-pyrrolo[3,2-c]pyridine-2-amide], the values for the IC50 in assay [1], in assay [2] and in assay [3] were 219 nM, 31.3 nM and below 0.5 nM, respectively.

Take `Cc1cc(F)cc(C)c1Oc1ccc(C(C)(C)O)cc1-c1cn(C)c(=O)c2cc(C(=O)NCC#N)[nH]c12` [Embodiment 15, N-(cyanomethyl)-7-(2-(4-fluoro-2,6-dimethylphenoxy)-5-(2-hydroxyprop-2-yl)phenyl)-5-methyl-4-oxo-4,5-dihydro-1H-pyrrolo[3,2-c] pyridine-2-amide]: the IC50 in assay [1] is 81 nM; in assay [2] it was 33.3 nM; in assay [3], below 0.5 nM.

On to `Cc1cc(F)cc(C)c1Oc1ccc(C(C)(C)O)cc1-c1cn(C)c(=O)c2cc(C(=O)NC3CC3)[nH]c12` [Embodiment 16, N-cyclopropyl-7-(2-(4-fluoro-2,6-dimethylphenoxy)-5-(2-hydroxyprop-2-yl)phenyl)-5-methyl-4-oxo-4,5-dihydro-1H-pyrrolo[3,2-c]pyridine-2-amide], for which the IC50 in assay [1] is 93 nM; in assay [2], 7.95 nM; in assay [3] it was below 0.5 nM.

Turning to `Cc1cc(F)cc(C)c1Oc1ccc(C(C)(C)O)cc1-c1cn(C)c(=O)c2cc(C(=O)N3CCC3)[nH]c12` [Embodiment 17, 2-(azetidine-1-carbonyl)-7-(2-(4-fluoro-2,6-dimethylphenoxy)-5-(2-hydroxyprop-2-yl)phenyl)-5-methyl-1,5-dihydro-4H-pyrrolo[3,2-c] pyridin-4-one], the figures for the 50% inhibitory concentration (IC50) in assay [1], in assay [2] and in assay [3] were 233 nM, 248 nM and 7.4 nM, respectively.

As for `Cc1cc(F)cc(C)c1Oc1ccc(C(C)(C)O)cc1-c1cn(C)c(=O)c2cc(C(=O)N3CC(F)(F)C3)[nH]c12` [Embodiment 19, 2-(3,3-difluoroazetidine-1-carbonyl)-7-(2-(4-fluoro-2,6-dimethylphenoxy)-5-(2-hydroxyprop-2-yl)phenyl)-5-methyl-1,5-dihydro-4H-pyrrolo[3,2-c]pyridin-4-one], the IC50 is 292 nM in assay [1], 147 nM in assay [2] and 2.8 nM in assay [3].

As to `Cc1cc(F)cc(C)c1Oc1ccc(C(C)(C)O)cc1-c1cn(C)c(=O)c2cc(C(=O)NC(CF)CF)[nH]c12` [Embodiment 20, N-(1,3-difluoropropyl-2-yl)-7-(2-(4-fluoro-2,6-dimethylphenoxy)-5-(2-hydroxyprop-2-yl)phenyl)-5-methyl-4-oxo-4,5-dihydro-1H-pyrrolo[3,2-c]pyridine-2-amide], the values for the IC50 in assay [1], in assay [2] and in assay [3] were 98 nM, 4.8 nM and below 0.51 nM, respectively.
